Source: article PMC10641814 (Journal of Medicinal Chemistry, 2023)

Key:
[1] = target: 5-HT2AR (Homo sapiens, UniProt P28223); assay: 5-HT2AR binding ([3H]-ketanserine), Eurofins; settings: read-out: serotonin 5-HT2A % inhibition at 1 microM
From the text: (§1) The results were expressed as the %
(§2) www.eurofinsdiscovery.com.

[2] = target: serotonin transporter SERT (Homo sapiens, UniProt P31645); assay: SERT binding ([3H]-imipramine), Eurofins
From the text: as §1, §2

[3] = Chemical stability (hydrolysis, oxidation); settings: acidic and basic hydrolysis (0.5 M HCl and 0.5 M NaOH at 60 °C) and oxidizing conditions (10% H2O2 at room temperature)
[4] = target: 5-HT2BR (Homo sapiens, UniProt P41595); assay: 5-HT2BR binding ([3H]-mesulergine), Eurofins
5-HT2BR, sequence (P41595 whole entry): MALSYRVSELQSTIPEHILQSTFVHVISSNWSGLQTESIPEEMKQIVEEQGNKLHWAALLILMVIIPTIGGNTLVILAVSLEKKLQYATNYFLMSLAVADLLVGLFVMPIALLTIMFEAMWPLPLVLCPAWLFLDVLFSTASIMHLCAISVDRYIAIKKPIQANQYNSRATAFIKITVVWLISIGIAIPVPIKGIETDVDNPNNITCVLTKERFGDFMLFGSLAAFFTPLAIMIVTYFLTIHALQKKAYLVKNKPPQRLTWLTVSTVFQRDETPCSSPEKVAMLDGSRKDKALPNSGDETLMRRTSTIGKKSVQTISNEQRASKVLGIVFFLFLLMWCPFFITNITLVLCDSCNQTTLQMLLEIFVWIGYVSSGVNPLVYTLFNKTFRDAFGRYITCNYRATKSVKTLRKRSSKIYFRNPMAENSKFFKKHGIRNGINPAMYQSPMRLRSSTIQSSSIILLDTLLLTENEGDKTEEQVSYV
From the text: as §1, §2

[5] = target: T1, 5-HT3R (Cavia porcellus, UniProt O70212); assay: Ex vivo guinea pig ileum contractility, serotonin-induced; settings: 15 min incubation
T1 construct: from tissue; host or cells: guinea pig ileum
T1 sequence (O70212 20-490): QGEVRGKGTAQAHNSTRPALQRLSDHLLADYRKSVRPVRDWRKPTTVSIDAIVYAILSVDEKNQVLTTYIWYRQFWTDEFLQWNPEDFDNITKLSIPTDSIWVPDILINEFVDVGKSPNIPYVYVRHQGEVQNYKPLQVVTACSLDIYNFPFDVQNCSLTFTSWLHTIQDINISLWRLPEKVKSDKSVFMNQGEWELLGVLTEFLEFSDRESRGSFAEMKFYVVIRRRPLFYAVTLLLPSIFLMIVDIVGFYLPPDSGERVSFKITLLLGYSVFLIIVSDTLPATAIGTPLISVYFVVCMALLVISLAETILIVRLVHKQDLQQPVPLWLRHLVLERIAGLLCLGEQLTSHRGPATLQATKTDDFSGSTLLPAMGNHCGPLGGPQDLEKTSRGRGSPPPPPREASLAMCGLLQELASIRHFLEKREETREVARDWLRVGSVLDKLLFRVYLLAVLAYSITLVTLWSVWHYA

[6] = target: T2, α2AR (Homo sapiens, UniProt P08913); assay: Adrenergic α2AR binding ([3H]-RX821002), Eurofins; settings: read-out: adrenergic alfa2A % inhibition at 1 microM
T2 sequence (P08913 1-465): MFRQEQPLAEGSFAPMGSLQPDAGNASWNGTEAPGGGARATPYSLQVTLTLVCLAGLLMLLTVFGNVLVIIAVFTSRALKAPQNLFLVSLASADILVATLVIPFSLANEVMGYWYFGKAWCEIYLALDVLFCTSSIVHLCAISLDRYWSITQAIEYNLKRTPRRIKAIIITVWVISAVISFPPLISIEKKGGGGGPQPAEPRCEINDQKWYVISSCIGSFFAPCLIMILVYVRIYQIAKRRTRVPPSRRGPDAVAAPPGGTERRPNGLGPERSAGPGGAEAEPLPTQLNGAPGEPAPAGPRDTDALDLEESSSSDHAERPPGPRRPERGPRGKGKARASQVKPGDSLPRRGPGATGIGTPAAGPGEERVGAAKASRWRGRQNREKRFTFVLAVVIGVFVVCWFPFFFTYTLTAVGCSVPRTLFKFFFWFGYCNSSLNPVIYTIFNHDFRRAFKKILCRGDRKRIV
From the text: as §1, §2

[7] = target: T3, 5-HT2CR (Homo sapiens, UniProt P28335); assay: 5-HT2CR binding ([3H]-mesulergine), Eurofins; settings: read-out: serotonin 5-HT2C % inhibition at 1 microM
T3 sequence (P28335 33-458): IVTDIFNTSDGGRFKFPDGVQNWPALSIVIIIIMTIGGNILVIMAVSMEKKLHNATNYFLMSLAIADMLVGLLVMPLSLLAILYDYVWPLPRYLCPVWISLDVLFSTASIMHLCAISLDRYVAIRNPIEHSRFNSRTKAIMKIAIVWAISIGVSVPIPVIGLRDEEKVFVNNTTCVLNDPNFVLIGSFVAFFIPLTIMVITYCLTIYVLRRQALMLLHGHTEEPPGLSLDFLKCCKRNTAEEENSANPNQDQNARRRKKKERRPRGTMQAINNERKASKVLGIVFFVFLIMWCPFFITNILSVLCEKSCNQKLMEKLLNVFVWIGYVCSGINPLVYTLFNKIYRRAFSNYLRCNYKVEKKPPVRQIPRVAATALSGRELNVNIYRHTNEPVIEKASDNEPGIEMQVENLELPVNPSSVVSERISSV
From the text: as §1, §2

[8] = system: hippocampus of rats injected with oAβ25–35; assay: Western blot of hippocampal AD biomarkers in oAβ25–35-injected rats; assay type: in vivo, rat; settings: oAβ25–35 icv
Description: As previously detailed,[37],[64] to induce the acute model of AD (oAβ25–35 model), rats were divided into three groups. […] The animals were anesthetized with an intraperitoneal (ip) injection of a mixture of ketamine and xylazine (80 and 10 mg/kg b.w., respectively). Scrambled peptide and oAβ25–35 were injected directly into the lateral ventricles at a rate of 2 μL/min using a David-Kopf stereotaxic apparatus (coordinates of injection: AP −1 mm, L ±1.5 mm, DV −3.5 mm).
On day 14, animals were subjected to a behavioral memory test (T-maze) and sacrificed on day 15 by decapitation.
2—A preventive approach: This treatment was started at the same time as the induction of amyloid toxicity and consisted of implanting ip, and during the same anesthetic procedure necessary for the icv injection of oAβ25–35, an osmotic pump (Alzet-EML2, Charles-River, France) which continuously delivered the molecules for 1 week at the dose of 3 mg/kg/day. On day 7, animals were submitted to a behavioral memory test (T-maze) and sacrificed on day 8 by decapitation.
At the time of sacrifice, all hippocampi were dissected out, weighed, and rapidly frozen in liquid nitrogen for Western blot (WB) analysis.
Western blot analyses were performed on the whole hippocampus as previously described.[37] All antibodies used are detailed in Table S3. Briefly, after sacrifice, hippocampi were microdissected, weighed, immediately frozen in liquid nitrogen, and stored at −20 °C. Tissues were sonicated (VibraCell; Sonics & Materials, USA) in a lysis buffer[37] and centrifuged (4 °C). Supernatants were collected, and the protein concentration was measured using a bicinchoninic Acid (BCA) assay (ThermoFisher Scientific, France). […] The membranes were incubated overnight (4 °C) with the primary antibody, washed, and then incubated for 2 h with the appropriate horseradish peroxidase-conjugated secondary antibody. […] The intensity of the immunoreactive signals was quantified using Image-J software (NIH, Bethesda, […], USA). β-Tubulin (β-Tub) was used as a loading control for all experiments.

[9] = target: dopaminergic D3R (Homo sapiens, UniProt P35462); assay: D3R binding ([3H]-methylspiperone), Eurofins; settings: read-out: dopamine D3 % inhibition at 1 microM
dopaminergic D3R, sequence (P35462 whole entry): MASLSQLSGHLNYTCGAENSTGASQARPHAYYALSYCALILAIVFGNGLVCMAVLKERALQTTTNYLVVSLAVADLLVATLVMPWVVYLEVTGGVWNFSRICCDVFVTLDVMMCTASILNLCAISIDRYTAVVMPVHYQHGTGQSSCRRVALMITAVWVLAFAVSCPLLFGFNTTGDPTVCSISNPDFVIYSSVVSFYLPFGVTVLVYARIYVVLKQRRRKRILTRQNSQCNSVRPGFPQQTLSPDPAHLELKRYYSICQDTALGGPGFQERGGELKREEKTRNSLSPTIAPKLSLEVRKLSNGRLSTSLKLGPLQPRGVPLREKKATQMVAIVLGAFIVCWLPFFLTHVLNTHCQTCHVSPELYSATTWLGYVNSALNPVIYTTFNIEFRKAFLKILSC
From the text: as §1, §2

[10] = 1.5 mg/kg ip twice a day for 7 days
[11] = 3 mg/kg/day osmotic pump 1 week
[12] = curative and preventive approach

5-HT2AR, sequence (P28223 whole entry): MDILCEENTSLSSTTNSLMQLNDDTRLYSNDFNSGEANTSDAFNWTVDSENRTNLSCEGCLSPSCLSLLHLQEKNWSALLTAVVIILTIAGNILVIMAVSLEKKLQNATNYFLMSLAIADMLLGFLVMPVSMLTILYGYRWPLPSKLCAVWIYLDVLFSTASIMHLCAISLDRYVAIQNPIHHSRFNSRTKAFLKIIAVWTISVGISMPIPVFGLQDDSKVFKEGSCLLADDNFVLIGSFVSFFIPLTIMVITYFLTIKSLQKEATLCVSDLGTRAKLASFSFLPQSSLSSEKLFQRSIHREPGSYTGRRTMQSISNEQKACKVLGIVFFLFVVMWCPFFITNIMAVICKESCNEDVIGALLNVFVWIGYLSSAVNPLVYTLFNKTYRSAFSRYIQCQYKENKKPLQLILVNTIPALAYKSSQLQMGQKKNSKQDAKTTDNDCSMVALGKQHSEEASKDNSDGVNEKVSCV
serotonin transporter SERT, sequence (P31645 whole entry): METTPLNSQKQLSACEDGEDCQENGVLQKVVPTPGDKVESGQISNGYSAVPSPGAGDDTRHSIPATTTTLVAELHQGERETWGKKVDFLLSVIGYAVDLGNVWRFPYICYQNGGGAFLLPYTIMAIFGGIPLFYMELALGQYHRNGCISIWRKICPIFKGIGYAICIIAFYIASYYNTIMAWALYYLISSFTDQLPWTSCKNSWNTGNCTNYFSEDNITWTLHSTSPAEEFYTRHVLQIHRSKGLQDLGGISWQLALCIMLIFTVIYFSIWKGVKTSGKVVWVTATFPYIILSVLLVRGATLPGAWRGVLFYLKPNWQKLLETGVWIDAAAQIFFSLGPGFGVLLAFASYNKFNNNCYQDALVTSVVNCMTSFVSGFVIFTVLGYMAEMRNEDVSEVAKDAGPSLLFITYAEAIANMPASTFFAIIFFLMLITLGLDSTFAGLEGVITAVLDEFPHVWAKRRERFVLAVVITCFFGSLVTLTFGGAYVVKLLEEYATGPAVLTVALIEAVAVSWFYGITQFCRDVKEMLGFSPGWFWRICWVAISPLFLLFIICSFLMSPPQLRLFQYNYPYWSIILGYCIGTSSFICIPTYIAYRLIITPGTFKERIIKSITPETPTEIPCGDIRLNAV

Cl.Clc1cccc(Cn2ccc3c(N4CCNCC4)nc4ccccc4c32)c1 [PZ-1922, 1-(3-Chlorobenzyl)-4-(piperazin-1-yl)-1H-pyrrolo[3,2-c]quinoline Hydrochloride]
inhibition at 1 µM [1]: 5%
inhibition at 1 µM [2]: 1.8%
chemical stability [3]: chemically stable
effect on 5-HT2BR (cardiac safety, valvulopathy) ([4]; binding, 1 μM): lack of effect
inhibition at 1 µM ([4]; read-out: serotonin 5-HT2B % inhibition at 1 microM): 17%
pD2' antagonism at 5-HT3R [5]: 7.32
pD2' antagonism at 5-HT3R ([5]; listed as 16 (PZ1922), 15 min): 7,32
inhibition at 1 µM [6]: 22%
inhibition at 1 µM [7]: 4%
hippocampal Caspase-3 and Pro-caspase-3 expression, curative strategy [8, 10]: decreased expression of Caspase-3 and Pro-caspase-3
hippocampal PSD-95 and SYN levels, curative treatment [8, 10]: reversed PSD-95 and SYN levels
hippocampal Caspase-3 and Pro-caspase-3 expression, preventive treatment [8, 11]: prevented increased expression of Caspase-3 and Pro-caspase-3
hippocampal PSD-95 and SYN levels, preventive treatment [8, 11]: reversed PSD-95 and SYN levels
hippocampal GFAP increase [8, 12]: Neither PZ-1922 nor intepirdine impacted the GFAP increase
hippocampal Iba1 level [8, 12]: decreased the Iba1 level regardless of the applied approach
inhibition at 1 µM [9]: 31%
